In patent publication EP1140830B1, “ARYLPIPERIDINE AND ARYL-1,2,5,6-TETRAHYDROPYRIDINE AMIDE DERIVATIVES HAVING 5HT1A RECEPTOR ACTIVITY” (Wyeth, priority 1998, dated 2000):
Where two headings read alike, the source gives them in different places.

Experiments:
human 5HT1A receptor [1] = biological target: T1, human 5HT1A receptor (Homo sapiens, UniProt P08908); test: 5-HT1A Receptor Intrinsic Activity Assay (forskolin-stimulated cAMP in transfected CHO cells, RIA); type: cell-based; settings: for Emax: Emax = 0 % means no agonist activity; for IC50: antagonist mode: reversal of agonist-induced activity, antagonist preincubated 20 minutes before agonist and forskolin
T1 construct: expressed in transfected cells; host or cells: CHO cells
T1 sequence (P08908 1-422): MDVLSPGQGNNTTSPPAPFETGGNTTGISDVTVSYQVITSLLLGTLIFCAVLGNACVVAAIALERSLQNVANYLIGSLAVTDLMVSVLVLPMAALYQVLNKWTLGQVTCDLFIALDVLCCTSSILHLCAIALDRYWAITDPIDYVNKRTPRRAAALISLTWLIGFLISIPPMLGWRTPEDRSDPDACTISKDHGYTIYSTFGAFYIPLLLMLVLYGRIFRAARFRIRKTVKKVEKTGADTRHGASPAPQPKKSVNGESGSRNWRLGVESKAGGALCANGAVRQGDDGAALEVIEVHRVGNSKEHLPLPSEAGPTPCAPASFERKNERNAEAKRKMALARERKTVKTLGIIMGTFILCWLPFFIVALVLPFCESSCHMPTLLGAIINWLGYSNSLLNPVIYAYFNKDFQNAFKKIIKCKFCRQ
Method: 5-HT1A Receptor Intrinsic Activity Assay
The intrinsic activity of compounds of the present invention was established by testing the claimed compounds ability to reverse the stimulation of cyclic adenosinemonophosphate (cAMP) in CHO cells stably transfected with the human 5-HT1A receptor.
Stably transfected CHO cells were grown in DMEM containing 10% heat inactivated FBS and non-essential amino acids. The cells arc plated at a density of ? x10^6 cells per well in a 24 well plate and incubated for 2 days in a CO2 incubator. On the second day, the media is replaced with 0.5 mL treatment buffer (DMEM + 25 mM HEPES, 5 mM theophylline, 10 µM pargyline) and incubated for 10 minutes at 37°C. Wells are treated with forskolin (1 µM final concentration) followed immediately by the test compound (0.1 and 1 µM for initial screen) and incubated for an additional 10 minutes at 37°C. The reaction is terminated by removal of the media and addition of 0.5 mL ice cold assay buffer (supplied in the RIA kit). Plates are stored at -20°C prior to assessment of cAMP formation by RIA. EC50 values are determined for the active test compounds. Compounds shown to have no agonist activities (Emax = 0 %) are further analyzed for their ability to reverse agonist-induced activity. In separate experiments, 6 concentrations of antagonist are preincubated for 20 minutes prior to the addition of agonist and forskolin. Cells are harvested as described above. The CAMP kit is supplied by Amersham and the RIA is performed as per kit instructions, and calculations of IC50 performed by GraphPad Prism.

human 5HT1A receptor [2] = biological target: T1, human 5HT1A receptor; test: 5-HT1A Receptor Binding Assay ([3H] 8-OH-DPAT displacement in transfected CHO cells)
Method: 5-HT1A Receptor Binding Assay
Stably transfected CHO cells are grown in DMEM containing 10% heat inactivated FBS and non-essential amino acids. Cells are scraped off the plate, transferred to centrifuge tubes, and washed twice by centrifugation (2000 rpm for 10 min., 4"C) in buffer (50 mM Tris pH 7.5). The resulting pellets are aliquoted and placed at -80°C. On the day of assay, the cells are thawed on ice and resuspended in buffer. The binding assay is performed in a 96 well microtiter plate in a total volume of 250 µL. […] Following a 30 minute incubation at room temperature, the reaction is terminated by the addition of ice cold buffer and rapid filtration through a GF/B filter presoaked for 30 minutes in 0.5% PEI.

[3] = agonist mode: reversal of forskolin (1 µM) stimulated cAMP, CHO cells
[4] = displacement of [3H] 8-OH-DPAT (1.5 nM), CHO cells stably transfected with human 5HT1A receptor

SMILES | EC50 (human 5HT1A receptor [1]; [3]) [nM] | Emax (human 5HT1A receptor [1]; [3]) [%] | Ki (human 5HT1A receptor [2]; [4]) [nM] | IC50 (human 5HT1A receptor [1]) [nM] | Ki (human 5HT1A receptor [2]) [nM]
COc1ccccc1C1CCN(C[C@@H](Cc2ccccc2)NC(=O)C2CCCCC2)CC1 [Example 6, (R)-Cyclohexanecarboxylic acid {1-benzyl-2-[4-(2-methoxy-phenyl)-piperidin-1-yl]-ethyl}-amide] | 16.9 | 92 | 0.23 |  | 
COc1ccccc1C1=CCN(C[C@@H](Cc2ccccc2)NC(=O)C2CCCCC2)CC1 [Example 3, (R)-Cyclohexanecarboxylic acid{1-benzyl-2-[4-(2-methoxy-phenyl)-3,6-dihydro-2H-pyridin-1-yl]-ethyl}-amide] |  | 84 |  |  | 
COc1ccccc1C1CCN(C[C@@H](Cc2ccccc2)NC(=O)C2(C)CCCCC2)CC1 [Example 5, (R)-1-Methyl-cyclohexanecarboxylic acid {1-benzyl-2-[4-(2-methoxy-phenyl)-piperidin-1-yl]-ethyl}-amide] |  | 0 | 0.24 | 0.29 | 
COc1ccccc1C1=CCN(C[C@@H](Cc2ccccc2)NC(=O)C2(C)CCCCC2)CC1 [Example 4, (R)-1-Methyl-cyclohexanecarboxylic acid{1-benzyl-2-[4-(2-methoxy-phenyl)-3,6-dihydro-2H-pyridin-1-yl]-ethyl}-amide] |  | 84 |  |  | 
COc1ccc(F)cc1C1CCN(C[C@@H](Cc2ccccc2)N(C)C(=O)C2(C)CCCCC2)CC1 [Example 1, 1-Methyl-cyclohexanecarboxylic acid {(1R)-1-benzyl-2-[4-(5-fluoro-2-methoxy-phenyl)-piperidine-1-yl]-ethyl}-methyl-amide] |  | 0 | 10.7 | 11.1 | 
COc1ccc(F)cc1C1=CCN(C[C@@H](Cc2ccccc2)N(C)C(=O)C2(C)CCCCC2)CC1 [Example 2, 1-Methyl-cyclohexanecarboxylic acid {(1R)-1-benzyl-2-[4-(5-fluoro-2-methoxy-phenyl)-1,2,5,6-tetrahydro-4H-pyridin-1-yl]-ethyl}-methyl-amide] |  | 0 |  |  | 4.9
